Paper PMC5232348, “Molecular and Functional Characterization of Three Odorant-Binding Protein from Periplaneta americana” (PLoS ONE, 2017)
Where two headings read alike, the source gives them in different places.

Columns and labels:
PameOBP1 [1] = biological target: T1, PameOBP1 (Periplaneta americana, UniProt B6E9U7); test: Binding of fluorescent probe 1-NPN to PameOBP1 (saturation, Scatchard); conditions: read-out: dissociation constant of 1-NPN for PameOBP1
Description: (§1) Emission fluorescence spectra were measured on a Hitachi F-4500 fluorescence spectrophotometer following our previous studies. Firstly, dissociation constants of the PameOBPs for N-phenyl-1-naphtylamine (1-NPN) were calculated to determine the suitability of 1-NPN as a fluorescence reporter. After the determination of the reporter, the affinities of the PameOBPs for each ligand were measured using 2 μM 1-NPN as the fluorescent reporter and 0.25–2.5 μM or 2–40 μM as competitor, in at least three technical replicates. The binding data were analyzed following our previous studies.
(§2) To investigate the role of three PameOBPs in the detection of odorants, we firstly tested the binding affinity of PameOBPs to fluorescent probe 1-NPN. […] Saturation and linear Scatchard plots (Fig 5A) indicated single binding sites in the proteins with no allosteric effects. We were, therefore, able to use the fluorescence competitive binding assay to determine the binding affinities of these three PameOBPs to 87 odorants from apple, grape, peach, pear, the juice of these fruits, and beer.

PameOBP3 [2] = biological target: T2, PameOBP3 (Periplaneta americana, UniProt B6E9U9); test: Binding of fluorescent probe 1-NPN to PameOBP3 (saturation, Scatchard); conditions: read-out: dissociation constant of 1-NPN for PameOBP3
T2 sequence (B6E9U9 entry or part of it): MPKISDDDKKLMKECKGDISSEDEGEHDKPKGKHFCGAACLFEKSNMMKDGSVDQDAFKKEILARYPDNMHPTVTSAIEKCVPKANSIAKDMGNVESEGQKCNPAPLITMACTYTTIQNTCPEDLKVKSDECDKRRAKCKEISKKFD
Description: as §1, §2

PameOBP2 [3] = biological target: T3, PameOBP2 (Periplaneta americana, UniProt B6E9U8); test: Binding of fluorescent probe 1-NPN to PameOBP2 (saturation, Scatchard); conditions: read-out: dissociation constant of 1-NPN for PameOBP2
T3 sequence (B6E9U8 entry or part of it): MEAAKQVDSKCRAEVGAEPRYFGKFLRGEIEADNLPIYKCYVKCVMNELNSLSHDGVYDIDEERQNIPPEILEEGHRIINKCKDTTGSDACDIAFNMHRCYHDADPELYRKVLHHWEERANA
Description: as §1, §2

PameOBP3 [4] = biological target: T2, PameOBP3; test: Competitive fluorescence binding assay (1-NPN displacement), recombinant PameOBP3
Description: (§3) The PameOBPs were expressed by using Escherichia coli expression system. To generate properly folded protein, the signal peptide predicted by SignalIP 4.1 [18] was removed. The two PameOBPs were amplified by gene special primers (S1 Table) with the cDNA as the template. The purified PCR products were ligated into expression vector pGEX-4T-1 using In-Fusion® HD Cloning Kit (Clontech, Mountain View, CA) according to the manufacturer’s instructions. The recombinant plasmid was transformed into E. coli BL21 (DE3) cells, and then expression and purification was performed according to a previously reported protocol. Recombinant proteins in the supernatant were purified by an affinity chromatography column GSTrap FF (GE Healthcare, Piscataway, NJ, USA). The GST tags were cleaved from recombinant proteins using 400 μL of thrombin (1U/μL) while loaded on GSTrap FF column at 25°C for 10 h and allowed 12 h. After that, the recombinant proteins were eluted with PBS buffer. Finally, the eluted proteins were desalted using HiTrap Desalting (GE Healthcare), lyophilized, and stored at −80°C until use.
(§4) Emission fluorescence spectra were measured on a Hitachi F-4500 fluorescence spectrophotometer following our previous studies. Firstly, dissociation constants of the PameOBPs for N-phenyl-1-naphtylamine (1-NPN) were calculated to determine the suitability of 1-NPN as a fluorescence reporter. […] The binding data were analyzed following our previous studies.

PameOBP1 [5] = biological target: T1, PameOBP1; test: Competitive fluorescence binding assay (1-NPN displacement), recombinant PameOBP1; conditions: 2 μM 1-NPN as fluorescent reporter, competitor 0.25–2.5 μM or 2–40 μM
Description: as §3, §4

PameOBP2 [6] = biological target: T3, PameOBP2; test: Competitive fluorescence binding assay (1-NPN displacement), recombinant PameOBP2; conditions: 2 μM 1-NPN as fluorescent reporter, competitor 0.25–2.5 μM or 2–40 μM
Description: as §3, §4

[7] = 2 μM 1-NPN as fluorescent reporter, competitor 0.25–2.5 μM or 2–40 μM, read-out: PameOBP3 Ki

T1 sequence (B6E9U7 entry or part of it): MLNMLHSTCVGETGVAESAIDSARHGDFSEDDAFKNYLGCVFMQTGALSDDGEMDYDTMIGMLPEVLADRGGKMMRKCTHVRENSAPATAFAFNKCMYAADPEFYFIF

Ki (PameOBP3 [4]; [7])	Ki (PameOBP1 [5]; read-out: PameOBP1 Ki)	Ki (PameOBP2 [6]; read-out: PameOBP2 Ki)	Compound	Ki (PameOBP3 [4])	Ki (PameOBP1 [5]; PameOBP1 Ki)	Ki (PameOBP2 [6]; PameOBP2 Ki)	other results
–	–	–	c1ccc(Nc2cccc3ccccc23)cc1 [1-NPN, N-phenyl-1-naphtylamine]	–	–	–	Kd (PameOBP1 [1]): 20.5 µM; Kd (PameOBP3 [2]): 24.9 µM; Kd (PameOBP2 [3]): 8.04 µM
> 40 µM	> 40 µM	> 40 µM	CC/C=C\CC=O [cis-3-hexenal]	–	–	–	–
> 40 µM	> 40 µM	> 40 µM	CC/C=C\CCOC(C)=O [cis-3-hexenyl acetate]	–	–	–	–
> 40 µM	> 40 µM	> 40 µM	CC/C=C\CCOC(=O)CCC [cis-3-hexenyl butyrate]	–	–	–	–
–	–	–	CC(C)c1ccccc1 [cumene]	> 40 µM	> 40 µM	> 40 µM	–
> 40 µM	> 40 µM	> 40 µM	CCCCCCCCCC=O [decanal]	–	–	–	–
> 40 µM	> 40 µM	> 40 µM	CCCCCCCCCCCC [dodecane]	–	–	–	–
–	–	–	CCOC(=O)c1ccccc1 [ethyl benzoate]	> 40 µM	> 40 µM	> 40 µM	–
> 40 µM	> 40 µM	> 40 µM	CCCC(=O)OCC [ethyl butyrate]	–	–	–	–
> 40 µM	> 40 µM	> 40 µM	CCOC(=O)CC [ethyl propionate]	–	–	–	–
–	–	–	CCc1ccccc1 [ethylbenzene]	> 40 µM	> 40 µM	> 40 µM	–
> 40 µM	> 40 µM	> 40 µM	CC12CCC(CC1)C(C)(C)O2 [eucalyptol]	–	–	–	–
–	–	–	CC(C)=CCC/C(C)=C/CO [geraniol]	> 40 µM	> 40 µM	> 40 µM	–
> 40 µM	> 40 µM	> 40 µM	CCCCCCCCCCCCCCCCC [heptadecane]	–	–	–	–
> 40 µM	> 40 µM	> 40 µM	CCCCCCCOC(C)=O [heptyl acetate]	–	–	–	–
–	–	–	CCCCCC=O [hexanal]	> 40 µM	> 40 µM	> 40 µM	–
> 40 µM	> 40 µM	> 40 µM	CCCCCCOC(=O)CCC [hexyl butyrate]	–	–	–	–

Ki (PameOBP3 [4]; [7])	Ki (PameOBP1 [5]; read-out: PameOBP1 Ki)	Ki (PameOBP2 [6]; read-out: PameOBP2 Ki)	Compound	Ki (PameOBP3 [4])	Ki (PameOBP1 [5]; PameOBP1 Ki)	Ki (PameOBP2 [6]; PameOBP2 Ki)	other results
–	–	–	c1ccc2[nH]ccc2c1 [indole]	> 40 µM	> 40 µM	> 40 µM	–
> 40 µM	> 40 µM	> 40 µM	CC(=O)OCCC(C)C [isoamyl acetate]	–	–	–	–
–	–	–	C=CC(C)(O)CCC=C(C)C (stereo not drawn) [linalool]	> 40 µM	> 40 µM	> 40 µM	–
–	–	–	COC(=O)c1ccccc1O [methyl salicylate]	> 40 µM	> 40 µM	> 40 µM	–
–	–	–	c1ccc2ccccc2c1 [naphthalene]	> 40 µM	> 40 µM	> 40 µM	–
> 40 µM	> 40 µM	> 40 µM	CCCCCCCCCOC(C)=O [nonyl acetate]	–	–	–	–
> 40 µM	> 40 µM	> 40 µM	CCCCCCCCCCCCCCCCCC [octadecane]	–	–	–	–
> 40 µM	> 40 µM	> 40 µM	CCCCCCCCOC(C)=O [octyl acetate]	–	–	–	–
> 40 µM	> 40 µM	> 40 µM	CCCCCOC(C)=O [pentyl acetate]	–	–	–	–
> 40 µM	> 40 µM	> 40 µM	OCCc1ccccc1 [phenethyl alcohol]	–	–	–	–
–	–	–	O=CCc1ccccc1 [phenylacetaldehyde]	> 40 µM	> 40 µM	> 40 µM	–
–	–	–	CCC/C=C/C=O [trans-2-hexenal]	> 40 µM	> 40 µM	> 40 µM	–
> 40 µM	> 40 µM	> 40 µM	CCC/C=C/COC(C)=O [trans-2-hexenyl acetate]	–	–	–	–
> 40 µM	> 40 µM	> 40 µM	CCC/C=C/COC(=O)CCC [trans-2-hexenyl butyrate]	–	–	–	–
> 40 µM	> 40 µM	> 40 µM	CCCCCCCCCCCCC [tridecane]	–	–	–	–
> 40 µM	> 40 µM	> 40 µM	CCCCCCCCCCC=O [undecanal]	–	–	–	–
> 40 µM	> 40 µM	> 40 µM	CCCCCCCCCCC [undecane]	–	–	–	–
